From PMC3651934 (2011)

Experiments:
Assay in all cases: ITC
[1] = test system: SAM-I riboswitch G3nU (RNA, riboswitch) GGCUUAUCAAGAGAGGUUGAGGGACUGGCCCGACGAAACCCGGCAACCAGAAAUGGUGCCAAUUCCUGCAGCGGAAACGUUGAAAGAUGAGCCG; conditions: 100 mM KCl, 10 mM MgCl2; 50 mM HEPES pH 7.5, 30 °C
[2] = test system: SAM-I riboswitch G2nU, G3nU (RNA, riboswitch) GGCUUAUCAAGAGAGGUUUAGGGACUGGCCCGACGAAACCCGGCAACCAGAAAUGGUGCCAAUUCCUGCAGCGGAAACGUUGAAAGAUGAGCCG; conditions: 100 mM KCl, 10 mM MgCl2; 50 mM HEPES pH 7.5, 30 °C
[3] = test system: SAM-I riboswitch, natural k-turn (RNA, riboswitch) GGCUUAUCAAGAGAGGUGGAGGGACUGGCCCGACGAAACCCGGCAACCAGAAAUGGUGCCAAUUCCUGCAGCGGAAACGUUGAAAGAUGAGCCG; conditions: 100 mM KCl, 10 mM MgCl2; 50 mM HEPES pH 7.5, 30 °C
[4] = test system: SAM-I riboswitch G2nA (RNA, riboswitch) GGCUUAUCAAGAGAGGUGAAGGGACUGGCCCGACGAAACCCGGCAACCAGAAAUGGUGCCAAUUCCUGCAGCGGAAACGUUGAAAGAUGAGCCG; conditions: 100 mM KCl, 10 mM MgCl2; 50 mM HEPES pH 7.5, 30 °C
[5] = test system: SAM-I riboswitch A1nC, G2nU, G3nU (RNA, riboswitch) GGCUUAUCAAGAGAGGUUUCGGGACUGGCCCGACGAAACCCGGCAACCAGAAAUGGUGCCAAUUCCUGCAGCGGAAACGUUGAAAGAUGAGCCG; conditions: 100 mM KCl, 10 mM MgCl2; 50 mM HEPES pH 7.5, 30 °C; 100 μM SAM titrated into 10 μM RNA; no heat evolved
[6] = test system: SAM-I riboswitch A1nC (RNA, riboswitch) GGCUUAUCAAGAGAGGUGGCGGGACUGGCCCGACGAAACCCGGCAACCAGAAAUGGUGCCAAUUCCUGCAGCGGAAACGUUGAAAGAUGAGCCG; conditions: 100 mM KCl, 10 mM MgCl2; 50 mM HEPES pH 7.5, 30 °C; 100 μM SAM titrated into 10 μM RNA; no heat evolved
[7] = test system: SAM-I riboswitch G2nC (RNA, riboswitch) GGCUUAUCAAGAGAGGUGCAGGGACUGGCCCGACGAAACCCGGCAACCAGAAAUGGUGCCAAUUCCUGCAGCGGAAACGUUGAAAGAUGAGCCG; conditions: 100 mM KCl, 10 mM MgCl2; 50 mM HEPES pH 7.5, 30 °C; 100 μM SAM titrated into 10 μM RNA; no heat evolved
[8] = test system: SAM-I riboswitch A1nU (RNA, riboswitch) GGCUUAUCAAGAGAGGUGGUGGGACUGGCCCGACGAAACCCGGCAACCAGAAAUGGUGCCAAUUCCUGCAGCGGAAACGUUGAAAGAUGAGCCG; conditions: 100 mM KCl, 10 mM MgCl2; 50 mM HEPES pH 7.5, 30 °C; 100 μM SAM titrated into 10 μM RNA; no heat evolved

Structure (SMILES): C[S+](CC[C@H](N)C(=O)O)C[C@H]1O[C@@H](n2cnc3c(N)ncnc32)[C@H](O)[C@@H]1O (some centres unmarked)
- Kd [1]: 340 ± 40 nM
- Kd [2]: 1950 ± 270 nM
- Kd [3]: 540 ± 250 nM
- Kd [4]: 310 ± 60 nM
- binding [5]: no
- binding [6]: no
- binding [7]: no
- binding [8]: no
